Values joined by “and” are separate entries in the source; they are usually repeats but may differ in a detail not shown here. Equal entries are not always repeated. Structures can show the parent of a compound that is named as a salt. Where two headings read alike, the source gives them in different places.
Assays:
rat arthritic pain model = test: PIFIR model: antinociceptive activity after intraarticular uric acid (rat arthritic pain model); assay type: in vivo, Wistar [CRl (WI) BR] female rats; set-up: antinociceptive efficiency (ABC): dose or concentration left out as unconfirmed
Procedure: A rat arthritic pain model was determined for said purpose. Data were interpreted by using a Surface Synergic Interaction Analysis (ISS) and an Isobolographic Analysis to determine the interaction nature. ISS is calculated from the total antinociceptive effect produced by a combination after a substraction of an antinociceptive effect produced separately by the drug.
For this trial, Wistar [CRl (WI) BR] female rats weighing 180-200 g. were weighed. Feed was maintained 12 hours before the water ad libitum access experiments. All the experimental procedures followed the recommendations of the Committee for Research and Ethical Issues of the International Association for the Study of Pain (Covino et al., 1980) and Guidelines on Ethical Standards for Investigations of Experimental Pain in Animals (Zimmermann, 1983) and they were carried out according to a protocol approved by the local Animal Ethics Committee. Animal number in experiment was kept at a […] and animals were maintained in a weathered room and light control with a 12-hour light/darkness cycle.
Uric acid was suspended in mineral oil; Ketorolac trometamine, tramadol hydrochloride and indomethacin were dissolved in carboxymethyl cellulose and orally administered.
Antinociceptive activity was determined by using a PIFIR model which has been described in detail (López-Muñoz et al., 1993). Animals were anesthetized with chamber ether (Pyrex-glass dryer saturated with ether vapor). Nociception was induced through an intraarticular injection (ia) of 0.5 mL uric acid suspended in mineral oil in the right-hind leg knee joint. Suspension was prepared by mixing 3.0 g of uric acid with 10 mL of mineral oil in a glass mortar with pestle (Pyrex). Intraarticular injection was carried out through the patellar ligament using a 1 mL glass syringe (Beckton Dickinson LTA, Brazil) with a 5 mm 24-needle. Immediately after, an electrode was implanted in the plantar surface of each hind claw between the plantar pads. Rats were allowed to recover from anesthesia and then a stainless steel cylinder was attached which was rotated at 4 rpm, forcing to the rats to walk for 2 minute periods every 30 minutes during 6.5 hours. It was not necessary a training period since rats learned it from the first minute. Contact time between each implanted electrode in rat limb and cylinder was registered. After the uric acid injection, rats progressively developed damaged limb dysfunction. […] This time was considered as zero time for antinoceptive effect measures; these effects are measured every 30 minutes during the following 4 hours. This allowed determining the course of the nociceptive effects in the same animal. Antinociception was considered as a recovery of contact time. Data are expressed as a performance percentage index (IF%; that is, contact time of injected leg divided by contact time of left leg, control, multiplied per 100). For the purpose of this trial, it was unavoidable to induce nociception in experimentation animals. However, care was taken in preventing an unnecessary suffering. All the experiments were performed between 7:00 A.M. and 2:00 P.M.
At the end of the study the rats were sacrificed.
Study data, tables and figures are expressed as IF%. IF% vs. time curves were prepared for each treatment and the corresponding time course was obtained. Antinociception was estimated as a recovery of IF%. Accumulated antinociceptive effect during all the observation period (4 hours) was determined as the area under the curve (ABC) for time course to obtain the dose-response curve and for analyzing the total antinociceptive effect obtained for the analgesic agent whether alone and in combination.
ABC was calculated for each drug combination and for each of the components. On the basis of addition of individual pharmacological effects (Seegers et al., 1981) an ABC equivalent to the sum was expected. […]

[1] = ketorolac, cited from earlier work
[2] = in vivo
Procedure: Blood samples were taken up to 24 hours after medicament delivery.
In order to determine whether bioavailability is existent or not between both medicaments, a logarithmic transformation of data was carried out and they were analyzed by means of the statistical package WinNonlinTM.
Confidence ranges proposed by FDA for semilogarithmic data in determining bioequivalency of two products are from 80 to 125%.

stomach = test: Gastrointestinal side effect measurement (gastric ulcers and erosions, relative to indomethacin); assay type: in vivo, Female rats from Wistar type; conditions: for Gastric lesion ((Index of ulcers in drug tests / Index of ulcers in indomethacin tests) x 100): relative to indomethacin 20 mg/kg = 100, same doses and schedule as ulcer column
Procedure: Female rats from Wistar type (150-180 g body weight) were subject to fasting 24 hours before experimentation. […] 2.5 hours later, all the groups received a second administration of the same doses. Stomachs were examined at 5 hours after first treatment in the following way: animals were sacrificed and stomach was separated which was opened along its lower curvature, gently rinsing with formol (2%) and examined. Severity of induced gastric lesions with medicament was calculated as a ratio of number of lesions (stomach ulcer or erosion) caused by provided treatment and the number of lesions caused by indomethacin (100%). This was determined to reflect the side effects induced by medicament. The sum of the area of all the ulcers in the body of each animal was calculated and served as an ulcerative index. Gastric lesion percentage was calculated in the following way: % of gastric lesion = (IUM/IUI) × 100 [formula] wherein IUM is the Medicament Ulcerative Index on test (mm^2) and IUI is the Ulcerative Index for assayed Indomethacin (mm^2).
ABC was calculated for each drug combination and for each of the components. On the basis of addition of individual pharmacological effects (Seegers et al., 1981) an ABC equivalent to the sum was expected. If the sum of the corresponding individual ABC was higher than the theoretical sum, the result was determined as enhancement; when similar to the theoretical sum it was determined to show additive antinociceptive effects. ABC was obtained through the trapezoidal rule (Rowland and Trozer, 1989). All the values for each treatment were average ± S.E.M., for six animals. ABC values for drug combinations were compared with the values which were expected by using the Student test. […] A P<0.05 was determined as statistically significant.

[3] = cited from earlier work
[4] = p.o., two administrations 2.5 hours apart, stomach examined at 5 hours, indomethacin 20 mg/kg, ketorolac 1 mg/kg, tramadol 17.8 mg/kg, combination as in title, six rats

SMILES: O=C(c1ccccc1)c1ccc2n1CCC2C(=O)O (centres unmarked) [Ketorolac, Ketorolac trometamine]
- Emax (rat arthritic pain model; IF% time course, ketorolac 0.32 mg/kg p.o. alone): 33.7 ± 8.7%
- ED50 (rat arthritic pain model; Rattus norvegicus, po, dose causing 50% of maximum possible effect, linear regression of dose-response curve, ± S.E.M., read-out: DE50 (the source's name)): 0.86 ± 0.1 mg/kg
- ABC (rat arthritic pain model; ketorolac 0.32 mg/kg p.o. alone, 4 hours): 65.0 ± 9.6 au
- ABC (rat arthritic pain model; ketorolac 0.56 mg/kg p.o. alone, 4 hours): 98.7 ± 15.5 au
- ABC (rat arthritic pain model; ketorolac 1.78 mg/kg p.o. alone, 4 hours): 279.0 ± 15.5 au
- antinociceptive effect (ABC) (rat arthritic pain model; ketorolac 3.16 mg/kg p.o., maximum used dose): 295.8 ± 14.9 au
- effect on walking capacity of rats treated with vehicle (rat arthritic pain model; ketorolac 0.18 -5.62 mg/kg, tramadol 3.16-56.23 mg/kg, no uric acid, data not shown): did not affect the walking capacity
- antinociceptive efficiency (ABC) (rat arthritic pain model; ketorolac p.o., area under IF% vs time curve, 4 hours, mean ± S.E.M., six animals): 295.8 ± 14.9 au
- start of analgesic effect ([1]; intramuscular administration): 30 min
- start of analgesic effect ([1]; oral administration): 10 min
- Ratio (%Ref), LnAUCINF ([2]; human): 95.53 %Ref
- Ratio (%Ref), Ln (Cmax) [2]: 72.78 %Ref
- Ulcers (sum of the area of all ulcers) (stomach; [4]): 13.7 ± 2.7 mm^2 and 13.7 ± 2.7^c mm^2
- Gastric lesion ((Index of ulcers in drug tests / Index of ulcers in indomethacin tests) x 100) (stomach): 26.6%
- dose removed by urine without any change ([3]; ketorolac, remainder excreted in feces): about 91%

SMILES: COc1cccc(C2(O)CCCCC2CN(C)C)c1 (centres unmarked) [Tramadol, Tramadol Hydrochloride]
- Antinociceptive effects (ABC) (rat arthritic pain model; rat, in vivo): 236.7 ± 11.0 au
- Emax (rat arthritic pain model; rat, in vivo): 17.1 ± 9.1%
- antinociceptive activity (ABC) (rat arthritic pain model; rat, in vivo): 207.7 ± 24.7 au
- effect on walking capacity of rats treated with vehicle (rat arthritic pain model; rat, in vivo): did not affect the walking capacity
- side effects (sedation, elation, dizziness and effects on walking capacity) (rat arthritic pain model; rat, in vivo): 50 % of animals
- DE50 (rat arthritic pain model; rat, in vivo, po): 44.29 ± 0.06 mg/kg
- No. of erosions (stomach; rat, in vivo): 0
- Ulcers (sum of the area of all ulcers) (stomach; rat, in vivo): 0 mm^2
- ulcers or erosions (in words) (stomach; rat, in vivo): did not cause ulcers or erosions
- bioavailability ([3]; in vivo, po): 79%
- time to maximum plasma concentrations ([3]; in vivo, po): 1.5 to 2 h

SMILES: COc1ccc2c(c1)c(CC(=O)O)c(C)n2C(=O)c1ccc(Cl)cc1 [Indomethacin]
- No. of erosions (stomach; [4]): 30.0 ± 3.9
- Ulcers (sum of the area of all ulcers) (stomach; [4]): 51.6 ± 3.4 mm^2
- Gastric lesion ((Index of ulcers in drug tests / Index of ulcers in indomethacin tests) x 100) (stomach): 100%

Reference: patent publication EP2138174A1, “PHARMACEUTICAL COMPOSITION IN THE FORM OF A SUBLINGUAL TABLET CONSISTING OF A NON-STEROIDAL ANTI-INFLAMMATORY AGENT AND AN OPIATE ANALGESIC FOR PAIN MANAGEMENT” (priority 2007, dated 2008)
